Source: patent US8173635B2, “Kinase inhibitors” (Vertex Pharmaceuticals Incorporated, priority 2007, dated 2012)

Experiments:
Assay type in all cases: biochemical
PKC delta kinase = PKC delta kinase (Homo sapiens, UniProt Q05655); experiment: PKC delta kinase inhibition, coupled-enzyme NADH absorbance assay (Ki); conditions: 150 μM ATP, 46 nM PKC delta, 30° C.; read-out: Ki PKC delta
Method: (§1) An assay buffer solution was prepared which consisted of 100 mM HEPES (pH 7.5), 10 mM MgCl2, 25 mM NaCl, 0.1 mM EDTA and 0.01% Brij. […] To 16 μL of this enzyme buffer, in a 384 well plate, was added 1 μL of VRT stock solution in DMSO. The mixture was allowed to equilibrate for 10 mins at 30° C. […] Ki values were calculated from initial rate data by non-linear regression using the Prism software package (Prism 4.0a, Graphpad Software, San Diego, Calif.).

PKC alpha kinase = PKC alpha kinase (Homo sapiens, UniProt P17252); experiment: PKC alpha kinase inhibition, coupled-enzyme NADH absorbance assay (Ki); conditions: 130 μM ATP, 4.5 nM PKC alpha, 30° C.; read-out: Ki PKC alpha
Method: as §1, with “EDTA, 100 μM CaCl2” for “EDTA”, “C. The enzyme reaction was initiated by the addition of 16 μL stock ATP solution prepared in assay buffer to a final assay concentration of 130 μM. Initial rate data was determined from the rate of change of absorbance at 340 nm (corresponding to stoichiometric consumption of NADH) using a Molecular Devices Spectramax plate reader (Sunnyvale, Calif.) over 15 mins at 30° C.” for “C.”

PKC theta kinase = PKC theta kinase (Homo sapiens, UniProt Q04759); experiment: PKC theta kinase inhibition, coupled-enzyme NADH absorbance assay (Ki); conditions: 240 μM ATP, 18 nM PKC theta, 30° C.; read-out: Ki PKC theta
Method: as §1, with “To 60” for “To 16”, “added 2” for “added 1”

Sequence of PKC theta kinase (Q04759 whole entry): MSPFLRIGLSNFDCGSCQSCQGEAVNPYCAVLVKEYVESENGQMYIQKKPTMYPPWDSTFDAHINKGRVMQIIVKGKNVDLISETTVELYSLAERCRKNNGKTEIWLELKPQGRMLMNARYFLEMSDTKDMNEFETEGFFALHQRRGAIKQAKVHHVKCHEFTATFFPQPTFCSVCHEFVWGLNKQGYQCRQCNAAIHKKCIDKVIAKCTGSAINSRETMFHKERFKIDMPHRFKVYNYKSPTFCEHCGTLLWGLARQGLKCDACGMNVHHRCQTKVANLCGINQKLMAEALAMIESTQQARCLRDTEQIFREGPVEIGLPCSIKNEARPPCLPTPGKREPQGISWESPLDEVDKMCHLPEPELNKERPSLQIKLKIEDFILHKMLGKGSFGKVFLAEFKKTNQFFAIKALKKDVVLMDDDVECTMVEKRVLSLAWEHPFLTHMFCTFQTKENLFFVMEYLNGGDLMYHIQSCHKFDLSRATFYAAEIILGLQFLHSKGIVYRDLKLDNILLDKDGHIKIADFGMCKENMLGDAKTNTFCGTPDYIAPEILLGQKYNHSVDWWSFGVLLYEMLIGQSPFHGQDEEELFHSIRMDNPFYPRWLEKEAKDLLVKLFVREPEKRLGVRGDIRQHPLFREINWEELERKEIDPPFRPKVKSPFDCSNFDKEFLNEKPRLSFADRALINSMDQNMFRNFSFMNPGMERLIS
Sequence of PKC delta kinase (Q05655 whole entry): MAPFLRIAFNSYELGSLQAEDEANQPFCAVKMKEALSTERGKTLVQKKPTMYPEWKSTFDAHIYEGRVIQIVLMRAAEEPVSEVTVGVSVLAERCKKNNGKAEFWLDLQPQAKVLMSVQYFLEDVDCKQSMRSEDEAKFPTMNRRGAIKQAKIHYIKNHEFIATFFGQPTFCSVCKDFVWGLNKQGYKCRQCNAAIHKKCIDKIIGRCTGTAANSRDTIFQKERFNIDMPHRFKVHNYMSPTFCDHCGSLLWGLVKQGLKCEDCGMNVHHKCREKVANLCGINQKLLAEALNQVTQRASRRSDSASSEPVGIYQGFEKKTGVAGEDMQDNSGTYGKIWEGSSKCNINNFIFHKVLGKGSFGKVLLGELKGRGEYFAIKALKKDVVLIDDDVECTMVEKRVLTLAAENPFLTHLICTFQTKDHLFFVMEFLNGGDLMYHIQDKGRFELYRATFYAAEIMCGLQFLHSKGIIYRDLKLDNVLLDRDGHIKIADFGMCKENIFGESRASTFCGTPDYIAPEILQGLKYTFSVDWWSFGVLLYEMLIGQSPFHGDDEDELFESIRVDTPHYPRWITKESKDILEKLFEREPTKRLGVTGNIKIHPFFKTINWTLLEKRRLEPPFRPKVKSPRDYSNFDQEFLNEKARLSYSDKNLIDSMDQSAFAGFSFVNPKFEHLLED

Row | Compound | Ki (PKC delta kinase) [µM] | Ki (PKC alpha kinase) [µM] | Ki (PKC theta kinase) [µM]
1 | CCc1n[nH]c2nccc(-c3cccc(C4(CN)COC4)c3)c12 [Compound 306] | < 0.5 | > 1.2 | < 0.05
2 | NCC1(c2cc(F)cc(-c3ccnc4[nH]nc(C(F)(F)F)c34)c2)CCOCC1 [Compound 276] | < 2.8 | < 0.5 | < 0.05
3 | CCC(C)(CN)c1cccc(-c2ccnc3[nH]nc(C4CC4)c23)c1 (stereo not drawn) [Compound 266] | < 0.05 | < 0.05 | < 0.05
4 | COc1cccc(CC(C)(CN)c2cccc(-c3ccnc4[nH]ncc34)c2)c1 (stereo not drawn) [Compound 173] | < 0.5 | < 0.5 | < 0.05
5 | NCC1(c2cccc(-c3ccnc4[nH]nc(Cl)c34)c2)CCC1 [Compound 260] | < 0.05 | < 0.5 | < 0.05
6 | NCC1(c2cccc(-c3ccnc4[nH]ncc34)c2)CC1 [Compound 153] | < 2.8 | < 2.8 | < 0.05
7 | CC(O)Cc1cc(-c2ccnc3[nH]ncc23)cc(C(C)(C)C#N)c1 (stereo not drawn) [Compound 79] | > 2.8 | > 2.8 | < 0.5
8 | N#CC1(c2cc(-c3ccnc4[nH]ncc34)cc(C(F)(F)C3CNC3)c2)CC1 [Compound 328] | < 2.8 | < 2.8 | < 0.05
9 | CCC(C)(CN)c1cc(F)cc(-c2ccnc3[nH]nc(Cl)c23)c1 (stereo not drawn) [Compound 258] | < 0.05 | < 0.05 | < 0.05
10 | CNCc1cc(-c2ccnc3[nH]ncc23)cc(C(C)(C)C#N)c1 [Compound 75] | > 2.8 | > 2.8 | < 2.8
11 | CCC(C)(C#N)c1cc(-c2ccnc3[nH]ncc23)cc(C(F)(F)CCC2CCCC2)c1 (stereo not drawn) [Compound 117] | > 2 | > 1.2 | > 0.7
12 | N#C[C@]1(c2cccc(-c3ccnc4[nH]ncc34)c2)C[C@@H](O)C1 [Compound 220] | > 2 | > 1.2 | < 0.5
13 | C=CCC(C)(CN)c1cccc(-c2ccnc3[nH]ncc23)c1 (stereo not drawn) [Compound 134] | < 0.5 | < 0.5 | < 0.05
14 | CCC(C)(C#N)c1cc(CCC(F)F)cc(-c2ccnc3[nH]ncc23)c1 (stereo not drawn) [Compound 108] | > 2 | > 1.2 | < 0.5
15 | CC(C)(N)CCc1cc(-c2ccnc3[nH]nc(C(F)(F)F)c23)cc(C2(C#N)CC2)c1 [Compound 317] | > 1.2 | > 1.2 | < 0.05
16 | C#Cc1cc(-c2ccnc3[nH]ncc23)cc(C(C)(C)CN)c1 [Compound 40] | < 0.5 | < 2.8 | < 0.5
17 | CCC(C)(CN)c1cc(Cl)cc(-c2ccnc3[nH]ncc23)c1 (stereo not drawn) [Compound 133] | < 0.5 | < 0.5 | < 0.05
18 | CCc1ccc(-c2ccnc3[nH]ncc23)cc1C(C)(C)CN [Compound 132] | < 2.8 | < 2.8 | < 0.5
19 | CC#CCC(C)(CN)c1cc(C)cc(-c2ccnc3[nH]ncc23)c1 (stereo not drawn) [Compound 234] | < 0.05 | < 0.5 | < 0.05
20 | CC(C)=CCC(C)(CN)c1cccc(-c2ccnc3[nH]ncc23)c1 (stereo not drawn) [Compound 154] | < 0.5 | < 0.5 | < 0.05
21 | Cc1cc(-c2ccnc3[nH]nc(C4CC4)c23)cc(C2(CN)CC2)c1 [Compound 268] | < 0.5 | < 0.5 | < 0.05
22 | CC(C#N)(Cc1ccccc1)c1cccc(-c2ccnc3[nH]ncc23)c1 (stereo not drawn) [Compound 100] | > 2.8 | > 0.39 | > 0.21
23 | C=CCc1cc(-c2ccnc3[nH]ncc23)cc(C(C)(C)C#N)c1 [Compound 67] | > 2.8 | < 2.8 | < 0.5

Row | Compound | Ki (PKC delta kinase) [µM] | Ki (PKC alpha kinase) [µM] | Ki (PKC theta kinase) [µM]
24 | CCC(C)(C#N)c1cc(CCN)cc(-c2ccnc3[nH]ncc23)c1 (stereo not drawn) [Compound 127] | > 2 | > 1.2 | < 0.5
25 | N#CC1(c2cccc(-c3ccnc4[nH]nc(C(F)(F)F)c34)c2)CCC1 [Compound 279] | < 2.8 | < 2.8 | < 0.05
26 | CCCc1cc(-c2ccnc3[nH]ncc23)cc(C2(CCN)CCC2)c1 [Compound 187] | > 2 | > 1.2 | < 2.8
27 | NC1(c2cccc(-c3ccnc4[nH]ncc34)c2)CC1 [Compound 223] | > 2 | > 1.2 | < 2.8
28 | C#CC1(c2cc(C)cc(-c3ccnc4[nH]ncc34)c2)CNC(=O)O1 (stereo not drawn) [Compound 319] | < 0.5 | < 0.5 | < 0.05
29 | CC(C)(C#N)c1cc(CN)cc(-c2ccnc3[nH]ncc23)c1 [Compound 76] | > 2.8 | > 2.8 | < 2.8
30 | CC(C)(C#N)c1cc(NCCN)cc(-c2ccnc3[nH]ncc23)c1 [Compound 17] | > 2.8 | > 2.8 | < 0.5
31 | N#C[C@]1(c2cccc(-c3ccnc4[nH]ncc34)c2)C[C@H](N)C1 [Compound 229] | < 0.5 | < 0.5 | < 0.05
32 | CCC(C)(C#N)c1cc(C)cc(-c2ccnc3[nH]ncc23)c1 (stereo not drawn) [Compound 89] | < 2.8 | < 2.8 | < 0.5
33 | NCC1(c2cccc(-c3ccnc4[nH]ncc34)c2)CCOCC1 [Compound 157] | < 2.8 | < 2.8 | < 0.05
34 | CCC(F)(CN)c1cc(C)cc(-c2ccnc3[nH]ncc23)c1 (stereo not drawn) [Compound 227] | < 2.8 | < 0.5 | < 0.05
35 | Cc1cc(-c2ccnc3[nH]nc(C(F)(F)F)c23)cc(C(C)(C)C#N)c1 [Compound 324] | > 1.2 | < 0.5 | < 0.05
36 | CCCC(C)(CN)c1cccc(-c2ccnc3[nH]ncc23)c1 (stereo not drawn) [Compound 51] | < 0.05 | < 0.5 | < 0.05
37 | CC(CN)(Cc1cscn1)c1cccc(-c2ccnc3[nH]ncc23)c1 (stereo not drawn) [Compound 170] | < 2.8 | < 2.8 | < 0.05
38 | CC(C)(CN)c1cc(Br)cc(-c2ccnc3[nH]ncc23)c1 [Compound 34] | < 0.5 | < 2.8 | < 0.05
39 | CCC(C)(CN)c1cc(CC(F)(F)F)cc(-c2ccnc3[nH]ncc23)c1 (stereo not drawn) [Compound 163] | > 2 | > 1.2 | < 0.5
40 | COCCC(C)(C#N)c1cccc(-c2ccnc3[nH]ncc23)c1 (stereo not drawn) [Compound 96] | > 2.8 | > 2.8 | < 2.8
41 | CCC(C)(C#N)c1cc(CC(F)(F)F)cc(-c2ccnc3[nH]ncc23)c1 (stereo not drawn) [Compound 113] | > 2 | > 1.2 | < 0.5
42 | C=C1CCc2ccc(-c3ccnc4[nH]ncc34)cc21 [Compound 202, 4-(3-Methylene-2,3-dihydro-1H-inden-5-yl)-1H-pyrazolo[3,4-b]pyridine] | > 2.8 | > 2.8 | > 2.8
43 | CC(CN)(CC(F)F)c1cccc(-c2ccnc3[nH]ncc23)c1 (stereo not drawn) [Compound 148] | < 0.05 | < 0.5 | < 0.05
44 | CCC(C)(C#N)c1cc(CCO)cc(-c2ccnc3[nH]ncc23)c1 (stereo not drawn) [Compound 101] | > 2.8 | < 2.8 | < 0.05
45 | C#CCC(C)(CN)c1cccc(-c2ccnc3[nH]ncc23)c1 (stereo not drawn) [Compound 135] | < 0.05 | < 0.05 | < 0.05
